Consider six molecules from patent US4683331A, “Omega-(2,4-dihalobiphenylyl) oxo alkanoic acids” (Spofa spojene podniky pro zdravotnickou, priority 1984, dated 1987).

Series [1] relates to Carrageenin edema. The following applies: J. Pharm. Sci. Vol. 66 (1977); cited from earlier work.
In a further series the test system is adjuvant arthritis. The following applies: J. Pharm. Sci. Vol. 66 (1977); cited from earlier work.
Another series can be described thus: in vivo. The following applies: acute (short-term) toxicity.
For series [2], the system named is Carrageenin edema. The series is described as follows: Carrageenin edema. Type of series: in vivo. To be noted: single dose. Here is the method:
(§1) Anti-inflammatory activity is measured according to
(§2) Carrageenin edema and Freund adjuvans edema. The assay for
Carrageenin edema was performed according to J. Winter, Proc.
Soc. Exptl. Biol. Med. Vol. 111 (1962), p 544. Single oral doses
Edema size was evaluated 1, 24, and 48
(§3) hours after administration of each compound. The assay for Free
(§4) after administration of each compound. All of the tabulated
(§5) values are statistically significant (p < 0.05) except for those
(In general: In the carrageenan paw model, swelling and tenderness develop within hours.)

The subject of the next series is Freund adjuvans edema. The series is described as follows: Freund adjuvans edema. Type of series: in vivo. The following applies: single dose. Here is the method:
as §1, §2, §3
adjuvans edema was performed according to Z. Horakova and J.
Grimova, Ceskosl. Fys. Vol. 17 (1968), p. 137. Single oral doses
The edema was evaluated 1, and 24 hours
as §4, §5

Where [3] appears, read: 25 mg/kg po, bracketed values not significant.
[4] abbreviates: 10 mg/kg po, bracketed values not significant.
Setting [5] is: 100 mg/kg po, bracketed values not significant.

For `O=C(O)CCC(=O)c1ccc(-c2ccc(Cl)cc2)cc1` [4'-Cl-fenbufen], the “activity for Carrageenin edema” value with Carrageenin edema [1] was “no activity”. In addition, in the series on adjuvant arthritis, the “percent inhibition for adjuvant arthritis” value is reported as 61%.

On to `CC(CC(=O)c1ccc(-c2ccc(F)cc2)cc1)C(=O)O` (stereo not drawn) [Compound 3], for which the LD50 in the series “in vivo” turned out to be 500 mg/kg. Further, the “Carrageenin % inhibition 1 hr” value turned out to be 16% in the series on Carrageenin edema [2] (setting [3]) and 33% in the series with Carrageenin edema [2] (100 mg/kg po). For the same molecule, the “Carrageenin % inhibition 24 hr” value in the series on Carrageenin edema [2] (setting [3]) was determined as 21%; in the series on Carrageenin edema [2] (100 mg/kg po), 34%. The results for the “Adjuvans % inhibition 1 hr” value in the series with Freund adjuvans edema (10 mg/kg po) and with Freund adjuvans edema (20 mg/kg po) were 37% and 42%, respectively. The “Adjuvans % inhibition 24 hr” value with Freund adjuvans edema (setting [4]) was determined as 31%; in the series with Freund adjuvans edema (20 mg/kg po), 39%.

Molecule `CC(CC(=O)c1ccc(-c2ccc(F)cc2F)cc1)C(=O)O` (stereo not drawn) [Compound 2] registered an LD50 in the series “in vivo” of 500 mg/kg. The “Carrageenin % inhibition 1 hr” value is 30% in the series with Carrageenin edema [2] (setting [3]) and 44% in the series with Carrageenin edema [2] (100 mg/kg po). The results for the “Carrageenin % inhibition 24 hr” value with Carrageenin edema [2] (setting [3]) and in the series on Carrageenin edema [2] (100 mg/kg po) were 61% and 66%, respectively. Also, the “Carrageenin % inhibition 48 hr” value was found to be 42% with Carrageenin edema [2] (25 mg/kg po) and 45% with Carrageenin edema [2] (100 mg/kg po). Besides, the figures for the “Adjuvans % inhibition 1 hr” value in the series on Freund adjuvans edema (25 mg/kg po) and with Freund adjuvans edema (50 mg/kg po) were 56% and 53%, respectively. The “Adjuvans % inhibition 24 hr” value with Freund adjuvans edema (setting [3]) is recorded as 32%; in the series on Freund adjuvans edema (50 mg/kg po) it was 46%.

`O=C(O)CCC(=O)c1ccc(-c2ccccc2)cc1` [Compound 4]: the “Carrageenin % inhibition 1 hr” value in the series with Carrageenin edema [2] (setting [3]) was determined as 40%; in the series with Carrageenin edema [2] (100 mg/kg po), 46%. Besides, the results for the “Carrageenin % inhibition 24 hr” value in the series on Carrageenin edema [2] (setting [3]) and in the series on Carrageenin edema [2] (100 mg/kg po) were 14% and 38%, respectively. In addition, in the series with Carrageenin edema [2] (100 mg/kg po), the “Carrageenin % inhibition 48 hr” value is on record as 0%. For the same molecule, the figures for the “Adjuvans % inhibition 1 hr” value in the series with Freund adjuvans edema (10 mg/kg po), in the series on Freund adjuvans edema (25 mg/kg po) and in the series on Freund adjuvans edema (100 mg/kg po) were 27%, 31% and 54%, respectively. Moreover, the “Adjuvans % inhibition 24 hr” value in the series on Freund adjuvans edema (setting [4]) is listed as 8%; in the series on Freund adjuvans edema (setting [3]) it was 9%; with Freund adjuvans edema (setting [5]) it was 7%.

On to `CC(CC(=O)c1ccc(-c2ccc(Cl)cc2Cl)cc1)C(=O)O` (stereo not drawn) [Compound 1], for which the LD50 in “in vivo” is 450 mg/kg. The “Carrageenin % inhibition 1 hr” value is 27% in the series on Carrageenin edema [2] (setting [3]) and 35% with Carrageenin edema [2] (100 mg/kg po). The “Carrageenin % inhibition 24 hr” value amounted to 54% with Carrageenin edema [2] (setting [3]) and 73% in the series on Carrageenin edema [2] (100 mg/kg po). Besides, the “Carrageenin % inhibition 48 hr” value in the series on Carrageenin edema [2] (25 mg/kg po) and in the series on Carrageenin edema [2] (100 mg/kg po) was 58% each time. Moreover, the “Adjuvans % inhibition 1 hr” value in the series with Freund adjuvans edema (10 mg/kg po) is recorded as 37%; with Freund adjuvans edema (25 mg/kg po) it was 40%; in the series on Freund adjuvans edema (100 mg/kg po), 45%. The “Adjuvans % inhibition 24 hr” value in the series on Freund adjuvans edema (setting [4]) was found to be 38%; in the series on Freund adjuvans edema (setting [3]), 46%; in the series on Freund adjuvans edema (setting [5]) it was 55%.

Turning to `O=C(O)CCC(=O)c1ccc(-c2ccc(F)cc2)cc1` [4'-F-fenbufen], the “activity for Carrageenin edema” value in the series on Carrageenin edema [1] is given as 1.7. The “activity for adjuvant arthritis (in words)” value in the series on adjuvant arthritis is “no activity”.

A word on the LD50: it is the dose at which mortality reaches 50%.
